Structures are written as SMILES. Where a SMILES comes first, the peptide text is derived from it. The star is where a group is joined. Cbz = O=C(OCc1ccccc1)*; CH2F = FC*

Test [1] addresses Pseudomonas aeruginosa hemolytic phospholipase C PlcHR2, wild type (Pseudomonas aeruginosa, UniProt P06200). Type of test: biochemical.
The next test deals with HUVEC. Type of test: cell-based, Homo sapiens.

Pseudomonas aeruginosa hemolytic phospholipase C PlcHR2, wild type, sequence (P06200 39-730 limits assumed): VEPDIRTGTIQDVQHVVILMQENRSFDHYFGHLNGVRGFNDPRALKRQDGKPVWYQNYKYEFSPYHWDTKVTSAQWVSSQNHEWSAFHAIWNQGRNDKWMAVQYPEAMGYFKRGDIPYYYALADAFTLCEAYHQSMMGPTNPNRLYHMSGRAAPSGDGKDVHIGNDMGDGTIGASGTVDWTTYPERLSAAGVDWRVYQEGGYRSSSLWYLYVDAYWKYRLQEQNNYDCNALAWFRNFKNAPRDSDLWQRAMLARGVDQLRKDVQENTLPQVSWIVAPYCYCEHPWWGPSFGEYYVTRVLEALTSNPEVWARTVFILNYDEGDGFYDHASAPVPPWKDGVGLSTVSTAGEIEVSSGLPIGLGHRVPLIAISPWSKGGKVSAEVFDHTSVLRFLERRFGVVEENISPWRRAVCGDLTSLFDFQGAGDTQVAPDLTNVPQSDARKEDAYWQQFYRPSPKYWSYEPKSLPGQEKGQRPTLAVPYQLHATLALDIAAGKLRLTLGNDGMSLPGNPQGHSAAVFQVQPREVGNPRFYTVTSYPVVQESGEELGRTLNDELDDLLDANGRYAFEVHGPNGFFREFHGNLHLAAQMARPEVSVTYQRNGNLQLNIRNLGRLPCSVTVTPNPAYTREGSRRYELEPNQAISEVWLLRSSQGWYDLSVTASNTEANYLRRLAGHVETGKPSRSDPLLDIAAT

The Km is the concentration of substrate that gives half-maximal velocity. The Vmax is the rate approached at saturating substrate. As a reminder, the kcat is the number of substrate molecules converted per active site and unit of time at saturation. For `C[N+](C)(C)CCOP(=O)([O-])Oc1ccc([N+](=O)[O-])cc1` [NPPC, ρ-nitrophenyl-phosphorylcholine], in test [1] (pH 7.2), the Michaelis-Menten constant (Km) is 19 mM and the Vmax is 147 ± 6 µmol/min/mg. In test [1] (pH 7.2, 37° C.), the kcat worked out at 192 s⁻¹.

In the case of `COC(=O)C[C@H](NC(=O)[C@H](C)NC(=O)[C@@H](NC(=O)OCc1ccccc1)C(C)C)C(=O)CF` [Z-VAD-FMK] (Cbz-Val-Ala-Asp(OMe)-CH2F), the “reduction of PlcHR2-induced LDH release” value with HUVEC is listed as “reduced the amount of LDH release”.

The values are drawn from patent publication US20100284992A1 (priority 2006, published 2010).
